Results as given in PubChem BioAssay AID192 (DTP/NCI, 2004).
Several values for one entry are separate records, joined by “and”; a condition that tells them apart may be missing. Equal values may be shown once. Inconclusive results and toxic doses are left out.

System: BDF1 mice, B16 melanoma ip, median survival T/C
Assay: NCI In Vivo Anticancer Drug Screen. Data for tumor model B16 Melanoma (intraperitoneal) in B6D2F1 (BDF1) mice
Conditions: endpoint: median survival time, higher = longer survival
Procedure, shortened: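 In this screen, activity was judged from survival or tumor size in treated versus vehicle-treated tumor-bearing mice, reported as T/C.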

[1] = dose: 100.0 mg/kg/injection, schedule: Q01DX009 (ip), vehicle: saline
[2] = dose: 200.0 mg/kg/injection, schedule: Q01DX009 (ip), vehicle: saline
[3] = dose: 400.0 mg/kg/injection, schedule: Q01DX009 (ip), vehicle: saline
[4] = dose: 100.0 mg/kg/injection, schedule: Q01DX009 (ip), vehicle: saline with Tween-80
[5] = dose: 200.0 mg/kg/injection, schedule: Q01DX009 (ip), vehicle: saline with Tween-80
[6] = dose: 150.0 mg/kg/injection, schedule: Q01DX009 (ip), vehicle: saline
[7] = dose: 12.5 mg/kg/injection, schedule: Q01DX009 (ip), vehicle: Klucel (hydroxypropylcellulose) (HPC)
[8] = dose: 100.0 mg/kg/injection, schedule: Q01DX009 (ip), vehicle: Klucel (hydroxypropylcellulose) (HPC)
[9] = dose: 200.0 mg/kg/injection, schedule: Q01DX009 (ip), vehicle: Klucel (hydroxypropylcellulose) (HPC)
[10] = dose: 100.0 mg/kg/injection, schedule: Q04DX003 (ip), vehicle: saline with Tween-80
[11] = dose: 200.0 mg/kg/injection, schedule: Q04DX003 (ip), vehicle: saline with Tween-80
[12] = dose: 400.0 mg/kg/injection, schedule: Q04DX003 (ip), vehicle: saline with Tween-80
[13] = dose: 4.0 mg/kg/injection, schedule: Q01DX009 (ip), vehicle: saline
[14] = dose: 1.0 mg/kg/injection, schedule: Q01DX009 (ip), vehicle: saline
[15] = dose: 2.0 mg/kg/injection, schedule: Q01DX009 (ip), vehicle: saline

## NCC(=O)NC(CO)C(=O)O (stereo unspecified)
[1]
  T/C: 90 % of control
dose: 100.0 mg/kg/injection, schedule: Q04DX003 (ip), vehicle: saline
  T/C: 100 % of control
[2]
  T/C: 106 % of control
dose: 200.0 mg/kg/injection, schedule: Q04DX003 (ip), vehicle: saline
  T/C: 102 % of control
[3]
  T/C: 95 % of control
dose: 400.0 mg/kg/injection, schedule: Q04DX003 (ip), vehicle: saline
  T/C: 95 % of control

## COc1cc(-c2ccc(N=Nc3cc(S(=O)(=O)O)c4ccccc4c3O)c(OC)c2)ccc1N=Nc1cc(S(=O)(=O)O)c2ccccc2c1O
[1]
  T/C: 102 % of control
[2]
  T/C: 89 % of control
[3]
  T/C: 93 % of control

## Cc1ccc(Cl)cc1NS(=O)(=O)c1ccccc1
[4]
  T/C: 90 % of control
[5]
  T/C: 95 % of control
dose: 400.0 mg/kg/injection, schedule: Q01DX009 (ip), vehicle: saline with Tween-80
  T/C: 90 % of control

## CCCCCCCCCCCCSC(=O)CCC(=O)O
dose: 50.0 mg/kg/injection, schedule: Q04DX003 (ip), vehicle: Klucel (hydroxypropylcellulose) (HPC)
  T/C: 108 % of control
dose: 100.0 mg/kg/injection, schedule: Q04DX003 (ip), vehicle: Klucel (hydroxypropylcellulose) (HPC)
  T/C: 108 % of control
dose: 200.0 mg/kg/injection, schedule: Q04DX003 (ip), vehicle: Klucel (hydroxypropylcellulose) (HPC)
  T/C: 102 % of control

## OCCOCC(F)(F)F
dose: 6.25 mg/kg/injection, schedule: Q01DX009 (ip), vehicle: saline with Tween-80
  T/C: 94 % of control and 112 % of control
dose: 12.5 mg/kg/injection, schedule: Q01DX009 (ip), vehicle: saline with Tween-80
  T/C: 99 % of control and 104 % of control
dose: 25.0 mg/kg/injection, schedule: Q01DX009 (ip), vehicle: saline with Tween-80
  T/C: 97 % of control and 103 % of control
dose: 50.0 mg/kg/injection, schedule: Q01DX009 (ip), vehicle: saline with Tween-80
  T/C: 92 % of control and 105 % of control
dose: 75.0 mg/kg/injection, schedule: Q01DX009 (ip), vehicle: saline with Tween-80
  T/C: 93 % of control
[4]
  T/C: 102 % of control and 103 % of control
dose: 150.0 mg/kg/injection, schedule: Q01DX009 (ip), vehicle: saline with Tween-80
  T/C: 88 % of control
[5]
  T/C: 94 % of control and 105 % of control

## O=C1C=CC(=O)C2=C1CCCC2
dose: 2.9 mg/kg/injection, schedule: Q01DX009 (ip), vehicle: saline with Tween-80
  T/C: 87 % of control
dose: 4.5 mg/kg/injection, schedule: Q01DX009 (ip), vehicle: saline with Tween-80
  T/C: 87 % of control

## Nc1ncnc2c1ncn2C1OC(CO)C(O)C1O (stereo unspecified)
dose: 18.7 mg/kg/injection, schedule: Q01DX009 (ip), vehicle: saline
  T/C: 96 % of control
dose: 32.0 mg/kg/injection, schedule: Q01DX009 (ip), vehicle: Klucel (hydroxypropylcellulose) (HPC)
  T/C: 99 % of control and 105 % of control
dose: 37.5 mg/kg/injection, schedule: Q01DX009 (ip), vehicle: saline
  T/C: 99 % of control
dose: 64.0 mg/kg/injection, schedule: Q01DX009 (ip), vehicle: Klucel (hydroxypropylcellulose) (HPC)
  T/C: 98 % of control and 101 % of control
dose: 75.0 mg/kg/injection, schedule: Q01DX009 (ip), vehicle: saline
  T/C: 98 % of control
dose: 128.0 mg/kg/injection, schedule: Q01DX009 (ip), vehicle: Klucel (hydroxypropylcellulose) (HPC)
  T/C: 99 % of control and 101 % of control
[6]
  T/C: 121 % of control
dose: 256.0 mg/kg/injection, schedule: Q01DX009 (ip), vehicle: Klucel (hydroxypropylcellulose) (HPC)
  T/C: 97 % of control and 98 % of control
dose: 512.0 mg/kg/injection, schedule: Q01DX009 (ip), vehicle: Klucel (hydroxypropylcellulose) (HPC)
  T/C: 93 % of control and 101 % of control
dose: 600.0 mg/kg/injection, schedule: Q01DX009 (ip), vehicle: saline
  T/C: 123 % of control

## CC1(C)N=C(N)N=C(N)N1c1cccc(CCCCc2ccc(Cl)c(S(=O)(=O)F)c2)c1
dose: 3.13 mg/kg/injection, schedule: Q01DX009 (ip), vehicle: Klucel (hydroxypropylcellulose) (HPC)
  T/C: 94 % of control
dose: 6.25 mg/kg/injection, schedule: Q01DX009 (ip), vehicle: Klucel (hydroxypropylcellulose) (HPC)
  T/C: 100 % of control
[7]
  T/C: 94 % of control

## COc1c([N+](=O)[O-])cc(C(=O)O)cc1[N+](=O)[O-]
[8]
  T/C: 92 % of control
[9]
  T/C: 92 % of control

## OC(Cc1nc(-c2ccccc2)c(-c2ccccc2)s1)(C(F)(F)F)C(F)(F)F
[10]
  T/C: 105 % of control
[11]
  T/C: 86 % of control

## C/C(=C\c1ccccc1)C(=O)c1ccccc1
[10]
  T/C: 100 % of control
[11]
  T/C: 113 % of control
[12]
  T/C: 92 % of control

## C[n+]1ccc(Nc2ccc(NC(=O)c3ccc(Nc4cc[n+](C)c5ccc([N+](=O)[O-])cc45)cc3)cc2)cc1
[13]
  T/C: 107 % of control
dose: 8.0 mg/kg/injection, schedule: Q01DX009 (ip), vehicle: saline
  T/C: 102 % of control
dose: 16.0 mg/kg/injection, schedule: Q01DX009 (ip), vehicle: saline
  T/C: 107 % of control
dose: 32.0 mg/kg/injection, schedule: Q01DX009 (ip), vehicle: saline
  T/C: 103 % of control

## CC[C@]12CN3CCc4c([nH]c5ccccc45)[C@@](C(=O)OC)(c4cc5c(cc4OC)N(C=O)[C@H]4[C@@](O)(C(=O)OC)[C@H](OC(C)=O)[C@]6(CC)C=CCN7CC[C@]54[C@@H]76)C[C@H](C3)[C@H]1O2
dose: 4.0 mg/kg/injection, schedule: Q01DX011 (ip), vehicle: saline
  T/C: 159 % of control

## [Cu+2].[NH-]C(CC(=O)O)C(=O)O.[NH-]C(CC(=O)O)C(=O)O (stereo unspecified)
dose: 4.68 mg/kg/injection, schedule: Q01DX009 (ip), vehicle: saline
  T/C: 98 % of control
dose: 9.37 mg/kg/injection, schedule: Q01DX009 (ip), vehicle: saline
  T/C: 101 % of control

## NC(Cc1cc(Cl)c(O)c(Cl)c1)C(=O)O (stereo unspecified)
[1]
  T/C: 94 % of control
[6]
  T/C: 100 % of control
[2]
  T/C: 98 % of control

## CCN(CC)CC#N
[14]
  T/C: 94 % of control
[15]
  T/C: 105 % of control
[13]
  T/C: 104 % of control

## Cc1ccccc1-n1c(C)nc2ccccc2c1=O
[7]
  T/C: 92 % of control and 108 % of control
dose: 25.0 mg/kg/injection, schedule: Q01DX009 (ip), vehicle: Klucel (hydroxypropylcellulose) (HPC)
  T/C: 92 % of control
dose: 50.0 mg/kg/injection, schedule: Q01DX009 (ip), vehicle: Klucel (hydroxypropylcellulose) (HPC)
  T/C: 88 % of control and 90 % of control
[8]
  T/C: 88 % of control
[9]
  T/C: 90 % of control

## O=P(N1CC1)(N1CC1)N1CC1
dose: 0.75 mg/kg/injection, schedule: Q01DX009 (ip), vehicle: saline with Tween-80
  T/C: 120 % of control
[14]
  T/C: 110 % of control
[15]
  T/C: 120 % of control

## Cc1sc2ccc(Cl)cc2[n+]1CCC(=O)O
[10]
  T/C: 105 % of control
[11]
  T/C: 107 % of control
[12]
  T/C: 105 % of control

## CC(C)(C)OC(=O)CCC(NC(=O)OCc1ccccc1)C(=O)NN (stereo unspecified)
dose: 75.0 mg/kg/injection, schedule: Q04DX003 (ip), vehicle: Klucel (hydroxypropylcellulose) (HPC)
  T/C: 97 % of control
dose: 150.0 mg/kg/injection, schedule: Q04DX003 (ip), vehicle: Klucel (hydroxypropylcellulose) (HPC)
  T/C: 100 % of control
dose: 300.0 mg/kg/injection, schedule: Q04DX003 (ip), vehicle: Klucel (hydroxypropylcellulose) (HPC)
  T/C: 97 % of control

## Nc1ncnc2c1ccn2C1OC2COP(=O)(O)OC2C1O (stereo unspecified)
[14]
  T/C: 116 % of control
[13]
  T/C: 111 % of control

## Cc1[nH]ccc2c(C)c3nc4ccc(O)cc4c3cc12
dose: 2.5 mg/kg/injection, schedule: Q04DX003 (ip), vehicle: water
  T/C: 123 % of control
dose: 5.0 mg/kg/injection, schedule: Q04DX003 (ip), vehicle: water
  T/C: 121 % of control
dose: 20.0 mg/kg/injection, schedule: Q04DX003 (ip), vehicle: water
  T/C: 153 % of control
dose: 40.0 mg/kg/injection, schedule: Q04DX003 (ip), vehicle: water
  T/C: 113 % of control

## Cc1cc2c3ccc(C)[n+](C)c3ccc2n1C
dose: 0.08 mg/kg/injection, schedule: Q01DX009 (ip), vehicle: saline
  T/C: 102 % of control
dose: 0.15 mg/kg/injection, schedule: Q01DX009 (ip), vehicle: saline
  T/C: 92 % of control
dose: 0.3 mg/kg/injection, schedule: Q01DX009 (ip), vehicle: saline
  T/C: 97 % of control
dose: 1.25 mg/kg/injection, schedule: Q01DX009 (ip), vehicle: saline
  T/C: 100 % of control
dose: 2.5 mg/kg/injection, schedule: Q01DX009 (ip), vehicle: saline
  T/C: 94 % of control

## c1ccc(COB(OCc2ccccc2)OCc2ccccc2)cc1
[1]
  T/C: 108 % of control
[2]
  T/C: 97 % of control
[3]
  T/C: 87 % of control
